Assay results published in publication PMC11233931, “Remodeling tumor‐associated macrophage for anti‐cancer effects by rational design of irreversible inhibition of mitogen‐activated protein kinase‐activated protein kinase 2” (MedComm, 2024).

Columns and labels:
Test in all cases: Eurofins kinase selectivity profile against 380 other human recombinant kinases (Table S2)
Format in all cases: biochemical
[1] = biological target: T1, 380 human recombinant protein kinases (Homo sapiens, UniProt P04626); details: ErbB2(h), read-out: Inhibition rate
T1 construct: purchased Eurofins (Celle Lévescault)
How it was run: (§1)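 Commercial selectivity screen of the test compound against a panel of 380 human recombinant protein kinases, run by an outside contractor at several compound concentrations to check whether its potency was specific for MK2.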

[2] = biological target: T2, 380 human recombinant protein kinases (Homo sapiens, UniProt P46734); details: MKK3(h), read-out: Inhibition rate
T2 construct: purchased Eurofins (Celle Lévescault)
T2 sequence (P46734 1-347): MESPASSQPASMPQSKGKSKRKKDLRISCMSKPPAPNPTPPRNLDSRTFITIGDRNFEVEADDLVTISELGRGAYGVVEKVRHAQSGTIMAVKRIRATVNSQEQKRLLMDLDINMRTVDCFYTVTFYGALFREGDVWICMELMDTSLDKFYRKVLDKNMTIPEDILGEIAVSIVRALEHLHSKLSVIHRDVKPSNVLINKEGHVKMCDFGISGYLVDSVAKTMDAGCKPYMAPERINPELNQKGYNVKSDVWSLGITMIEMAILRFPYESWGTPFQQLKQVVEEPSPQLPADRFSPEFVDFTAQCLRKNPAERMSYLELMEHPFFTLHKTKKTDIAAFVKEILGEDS
How it was run: as §1

[3] = biological target: T3, 380 human recombinant protein kinases (Homo sapiens, UniProt P51617); details: IRAK1(h), read-out: Inhibition rate
T3 construct: purchased Eurofins (Celle Lévescault)
How it was run: as §1

[4] = biological target: T4, 380 human recombinant protein kinases (Homo sapiens, UniProt P52564); details: MKK6(h), read-out: Inhibition rate
T4 construct: purchased Eurofins (Celle Lévescault)
T4 sequence (P52564 1-334): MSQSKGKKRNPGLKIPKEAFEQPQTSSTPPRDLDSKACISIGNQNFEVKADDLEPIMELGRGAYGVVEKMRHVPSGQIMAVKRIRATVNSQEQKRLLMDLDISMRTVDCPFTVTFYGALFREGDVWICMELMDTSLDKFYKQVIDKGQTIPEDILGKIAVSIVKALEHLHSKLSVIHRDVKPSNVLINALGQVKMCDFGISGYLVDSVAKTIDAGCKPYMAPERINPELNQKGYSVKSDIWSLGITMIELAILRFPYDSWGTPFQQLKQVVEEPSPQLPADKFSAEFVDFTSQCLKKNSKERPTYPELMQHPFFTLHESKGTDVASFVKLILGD
How it was run: as §1

[5] = biological target: T5, 380 human recombinant protein kinases (Homo sapiens, UniProt Q13237); details: PRKG2(h), read-out: Inhibition rate
T5 construct: purchased Eurofins (Celle Lévescault)
T5 sequence (Q13237 1-762): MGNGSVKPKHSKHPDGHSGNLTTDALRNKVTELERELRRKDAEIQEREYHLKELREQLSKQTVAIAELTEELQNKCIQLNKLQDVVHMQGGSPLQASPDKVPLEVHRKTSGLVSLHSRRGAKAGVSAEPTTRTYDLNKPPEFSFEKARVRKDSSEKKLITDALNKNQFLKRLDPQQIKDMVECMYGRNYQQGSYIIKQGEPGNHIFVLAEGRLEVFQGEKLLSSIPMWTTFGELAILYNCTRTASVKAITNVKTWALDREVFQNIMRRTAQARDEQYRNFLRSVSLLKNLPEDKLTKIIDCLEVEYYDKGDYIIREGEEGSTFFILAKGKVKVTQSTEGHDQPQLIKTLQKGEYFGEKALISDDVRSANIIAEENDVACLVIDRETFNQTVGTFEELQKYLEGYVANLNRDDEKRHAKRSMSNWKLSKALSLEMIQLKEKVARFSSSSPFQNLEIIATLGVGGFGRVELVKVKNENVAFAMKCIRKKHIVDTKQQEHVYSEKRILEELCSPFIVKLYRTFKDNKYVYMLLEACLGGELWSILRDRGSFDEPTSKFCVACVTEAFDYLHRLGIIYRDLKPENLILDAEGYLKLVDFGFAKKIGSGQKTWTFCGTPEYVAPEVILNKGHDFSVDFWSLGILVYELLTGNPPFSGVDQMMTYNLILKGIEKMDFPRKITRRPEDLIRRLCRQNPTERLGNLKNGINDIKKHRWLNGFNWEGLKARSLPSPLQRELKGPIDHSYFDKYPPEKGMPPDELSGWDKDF
How it was run: as §1

[6] = biological target: T6, 380 human recombinant protein kinases (Homo sapiens, UniProt Q15208); details: NDR1(h), read-out: Inhibition rate
T6 construct: purchased Eurofins (Celle Lévescault)
How it was run: as §1

[7] = biological target: T7, 380 human recombinant protein kinases (Homo sapiens, UniProt Q16513); details: PRK2(h), read-out: Inhibition rate
T7 construct: purchased Eurofins (Celle Lévescault)
How it was run: as §1

[8] = biological target: T8, 380 human recombinant protein kinases (Homo sapiens, UniProt Q2M2I8); details: AAK1(h), read-out: Inhibition rate
T8 construct: purchased Eurofins (Celle Lévescault)
How it was run: as §1

[9] = biological target: T9, 380 human recombinant protein kinases (Homo sapiens, UniProt Q96QT4); details: ChaK1(h), read-out: Inhibition rate
T9 construct: purchased Eurofins (Celle Lévescault)
How it was run: as §1

T1 sequence (P04626 23-1255): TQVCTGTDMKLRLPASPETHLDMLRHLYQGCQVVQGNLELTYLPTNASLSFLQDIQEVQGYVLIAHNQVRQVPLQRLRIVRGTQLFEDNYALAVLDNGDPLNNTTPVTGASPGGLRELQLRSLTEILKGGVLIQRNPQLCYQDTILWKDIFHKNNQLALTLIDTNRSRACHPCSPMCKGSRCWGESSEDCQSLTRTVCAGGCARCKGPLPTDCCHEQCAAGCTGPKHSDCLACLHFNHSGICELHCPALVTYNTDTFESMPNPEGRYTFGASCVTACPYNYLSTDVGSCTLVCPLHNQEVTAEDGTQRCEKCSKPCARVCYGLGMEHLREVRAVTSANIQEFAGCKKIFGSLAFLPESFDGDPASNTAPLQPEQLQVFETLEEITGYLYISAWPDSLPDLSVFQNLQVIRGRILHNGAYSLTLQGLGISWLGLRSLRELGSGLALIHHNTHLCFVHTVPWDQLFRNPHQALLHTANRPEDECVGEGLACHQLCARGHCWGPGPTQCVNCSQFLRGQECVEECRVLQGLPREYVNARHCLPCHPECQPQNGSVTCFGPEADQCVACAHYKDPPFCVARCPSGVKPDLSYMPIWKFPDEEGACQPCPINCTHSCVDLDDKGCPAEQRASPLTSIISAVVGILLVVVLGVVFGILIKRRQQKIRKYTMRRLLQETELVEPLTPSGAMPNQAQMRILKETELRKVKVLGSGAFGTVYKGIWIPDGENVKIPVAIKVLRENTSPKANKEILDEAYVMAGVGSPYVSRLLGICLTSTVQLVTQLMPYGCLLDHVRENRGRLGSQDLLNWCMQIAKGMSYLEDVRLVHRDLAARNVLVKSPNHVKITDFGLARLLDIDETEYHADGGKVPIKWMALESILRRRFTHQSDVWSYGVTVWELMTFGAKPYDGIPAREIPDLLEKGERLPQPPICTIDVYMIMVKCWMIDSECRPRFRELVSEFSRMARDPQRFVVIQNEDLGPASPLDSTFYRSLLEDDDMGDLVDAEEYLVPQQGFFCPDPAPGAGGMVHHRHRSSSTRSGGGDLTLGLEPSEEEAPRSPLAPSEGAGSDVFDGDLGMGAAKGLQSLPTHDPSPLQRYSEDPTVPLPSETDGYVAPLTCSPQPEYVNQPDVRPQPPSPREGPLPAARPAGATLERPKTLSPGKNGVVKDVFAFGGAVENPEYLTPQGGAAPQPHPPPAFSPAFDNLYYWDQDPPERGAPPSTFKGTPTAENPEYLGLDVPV
T9 sequence (Q96QT4 whole entry): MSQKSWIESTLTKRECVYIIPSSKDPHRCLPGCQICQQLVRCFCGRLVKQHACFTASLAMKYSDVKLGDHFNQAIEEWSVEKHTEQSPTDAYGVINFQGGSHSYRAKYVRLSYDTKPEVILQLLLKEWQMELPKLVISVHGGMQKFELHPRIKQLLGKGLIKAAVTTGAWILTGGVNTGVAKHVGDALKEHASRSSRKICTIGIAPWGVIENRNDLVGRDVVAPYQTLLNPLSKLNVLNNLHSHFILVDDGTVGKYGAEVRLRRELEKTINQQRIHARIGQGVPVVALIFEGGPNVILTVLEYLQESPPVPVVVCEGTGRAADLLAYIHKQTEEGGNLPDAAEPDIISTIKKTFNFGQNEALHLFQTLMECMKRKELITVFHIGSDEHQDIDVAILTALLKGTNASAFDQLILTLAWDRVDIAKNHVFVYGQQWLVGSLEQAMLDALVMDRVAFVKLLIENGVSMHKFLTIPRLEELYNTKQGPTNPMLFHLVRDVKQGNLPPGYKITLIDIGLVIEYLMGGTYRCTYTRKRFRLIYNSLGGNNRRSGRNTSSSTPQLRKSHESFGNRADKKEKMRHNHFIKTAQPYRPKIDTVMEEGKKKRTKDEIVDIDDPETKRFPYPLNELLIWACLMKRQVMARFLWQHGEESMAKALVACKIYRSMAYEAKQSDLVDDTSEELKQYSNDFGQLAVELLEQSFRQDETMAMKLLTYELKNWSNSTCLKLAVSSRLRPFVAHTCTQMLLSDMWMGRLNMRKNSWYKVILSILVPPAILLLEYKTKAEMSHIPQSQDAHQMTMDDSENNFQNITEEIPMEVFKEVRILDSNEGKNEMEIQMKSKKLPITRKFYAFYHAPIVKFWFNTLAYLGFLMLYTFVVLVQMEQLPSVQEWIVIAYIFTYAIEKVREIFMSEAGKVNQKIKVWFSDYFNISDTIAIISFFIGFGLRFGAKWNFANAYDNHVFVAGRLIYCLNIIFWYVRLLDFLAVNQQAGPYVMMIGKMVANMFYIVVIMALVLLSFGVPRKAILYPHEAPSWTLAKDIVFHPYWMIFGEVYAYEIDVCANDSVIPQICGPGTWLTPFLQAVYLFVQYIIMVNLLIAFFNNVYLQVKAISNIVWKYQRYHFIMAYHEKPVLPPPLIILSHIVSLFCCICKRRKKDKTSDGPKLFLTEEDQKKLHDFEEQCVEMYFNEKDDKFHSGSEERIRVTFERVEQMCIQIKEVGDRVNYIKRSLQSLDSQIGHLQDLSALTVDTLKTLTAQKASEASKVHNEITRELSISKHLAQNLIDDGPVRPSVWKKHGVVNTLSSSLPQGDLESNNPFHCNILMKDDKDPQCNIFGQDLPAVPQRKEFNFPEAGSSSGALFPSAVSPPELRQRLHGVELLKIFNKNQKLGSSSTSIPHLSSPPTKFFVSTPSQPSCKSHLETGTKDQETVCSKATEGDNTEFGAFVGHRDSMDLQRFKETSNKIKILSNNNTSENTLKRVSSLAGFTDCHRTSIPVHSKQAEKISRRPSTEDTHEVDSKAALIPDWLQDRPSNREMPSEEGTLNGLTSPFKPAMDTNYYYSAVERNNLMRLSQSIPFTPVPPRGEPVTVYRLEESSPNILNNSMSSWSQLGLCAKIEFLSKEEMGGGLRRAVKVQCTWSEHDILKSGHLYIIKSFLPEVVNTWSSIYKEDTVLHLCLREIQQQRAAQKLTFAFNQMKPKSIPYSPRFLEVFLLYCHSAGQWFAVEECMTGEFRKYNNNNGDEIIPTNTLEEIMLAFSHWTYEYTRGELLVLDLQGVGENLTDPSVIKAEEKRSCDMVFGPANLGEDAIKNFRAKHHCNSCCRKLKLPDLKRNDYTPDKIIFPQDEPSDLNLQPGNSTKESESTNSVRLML
T6 sequence (Q15208 whole entry): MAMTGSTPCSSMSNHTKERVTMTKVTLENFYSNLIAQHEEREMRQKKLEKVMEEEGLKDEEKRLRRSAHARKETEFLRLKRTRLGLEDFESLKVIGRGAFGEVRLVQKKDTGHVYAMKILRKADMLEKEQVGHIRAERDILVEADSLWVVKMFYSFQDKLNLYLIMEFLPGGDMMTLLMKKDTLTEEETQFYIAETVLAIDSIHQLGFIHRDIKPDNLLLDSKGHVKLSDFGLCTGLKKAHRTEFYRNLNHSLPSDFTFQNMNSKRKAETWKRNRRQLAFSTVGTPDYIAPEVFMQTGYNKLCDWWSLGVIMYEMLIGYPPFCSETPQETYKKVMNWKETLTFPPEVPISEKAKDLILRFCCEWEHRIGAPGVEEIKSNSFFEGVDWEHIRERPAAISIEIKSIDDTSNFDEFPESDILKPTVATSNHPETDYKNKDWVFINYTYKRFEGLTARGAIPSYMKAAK
T3 sequence (P51617 whole entry): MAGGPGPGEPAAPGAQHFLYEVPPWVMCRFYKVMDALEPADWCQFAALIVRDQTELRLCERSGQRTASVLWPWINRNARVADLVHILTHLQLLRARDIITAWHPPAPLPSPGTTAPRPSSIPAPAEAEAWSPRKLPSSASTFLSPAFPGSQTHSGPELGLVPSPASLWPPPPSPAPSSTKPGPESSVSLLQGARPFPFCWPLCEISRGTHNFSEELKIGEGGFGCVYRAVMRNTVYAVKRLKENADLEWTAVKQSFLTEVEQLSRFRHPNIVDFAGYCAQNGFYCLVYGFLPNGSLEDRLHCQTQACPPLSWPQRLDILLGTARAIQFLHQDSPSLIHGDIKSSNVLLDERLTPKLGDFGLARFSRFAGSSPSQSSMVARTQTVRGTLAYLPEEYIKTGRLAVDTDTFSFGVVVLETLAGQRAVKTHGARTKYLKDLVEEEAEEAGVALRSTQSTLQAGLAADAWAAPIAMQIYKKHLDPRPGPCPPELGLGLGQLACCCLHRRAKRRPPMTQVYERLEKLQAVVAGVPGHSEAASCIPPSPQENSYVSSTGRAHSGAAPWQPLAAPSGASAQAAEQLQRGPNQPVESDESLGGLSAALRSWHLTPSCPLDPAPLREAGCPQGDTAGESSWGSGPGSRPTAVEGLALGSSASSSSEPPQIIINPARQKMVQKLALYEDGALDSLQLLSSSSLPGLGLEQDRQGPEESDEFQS

Compound: C=CC(=O)Nc1cc(-c2cc(-c3cc4c([nH]3)CCNC4=O)ccn2)ccc1OC(F)(F)F [compound 11]
- inhibition at 0.01 µM ([1]; 10 nM): 10%
- inhibition at 0.1 µM ([1]; 100 nM): 5%
- inhibition at 1 µM ([1]; 1000 nM): 1%
- inhibition at 0.01 µM ([2]; 10 nM): 6%
- inhibition at 0.1 µM ([2]; 100 nM): -2%
- inhibition at 1 µM ([2]; 1000 nM): -1%
- inhibition at 0.01 µM ([3]; 10 nM): -1%
- inhibition at 0.1 µM ([3]; 100 nM): 3%
- inhibition at 1 µM ([3]; 1000 nM): 34%
- inhibition at 0.01 µM ([4]; 10 nM): -4%
- inhibition at 0.1 µM ([4]; 100 nM): -9%
- inhibition at 1 µM ([4]; 1000 nM): -15%
- inhibition at 0.01 µM ([5]; 10 nM): 7%
- inhibition at 0.1 µM ([5]; 100 nM): 19%
- inhibition at 1 µM ([5]; 1000 nM): 35%
- inhibition at 0.01 µM ([6]; 10 nM): -17%
- inhibition at 0.1 µM ([6]; 100 nM): -14%
- inhibition at 1 µM ([6]; 1000 nM): -12%
- inhibition at 0.01 µM ([7]; 10 nM): -2%
- inhibition at 0.1 µM ([7]; 100 nM): 3%
- inhibition at 1 µM ([7]; 1000 nM): 5%
- inhibition at 0.01 µM ([8]; 10 nM): -1%
- inhibition at 0.1 µM ([8]; 100 nM): 11%
- inhibition at 1 µM ([8]; 1000 nM): 39%
- inhibition at 0.01 µM ([9]; 10 nM): -7%
- inhibition at 0.1 µM ([9]; 100 nM): 1%
- inhibition at 1 µM ([9]; 1000 nM): -5%
